In the case of `CC(C)(C)CN1C(=O)N(CC(=O)O)N=C(c2ccccc2Cl)c2cc(Cl)ccc21`, the melting point lay within 181 to 183 °C. The value for `CC12C=CC(=O)C(N)=C1C=CC1C2CCC2(C)C(=O)CCC12` (centres undefined) was 206 to 208 °C. With `O=C(Cn1ccnc1)c1nccs1`, the melting point lay within 109 to 112 °C.

Consider `COc1cc([N+](=O)[O-])c2nccc(C)c2c1OCCCCCCCCc1ccccc1`, for which the melting point was 39.5 to 41 °C. As to `COC(=O)COc1ccccc1Oc1cc(NC(=O)CC(O)(O)C(F)(F)F)c(F)cc1Cl`, the melting point amounted to 165 °C. For `CC(=O)c1sccc1CBr`, the melting point lay within 62 to 64 °C. Molecule `CCc1cc(-c2c3ccccc3cc3oc(C)c(C)c23)cc(CC)c1OS(=O)(=O)c1ccc(C(=O)O)c(O)c1` registered a melting point of 222 to 227 °C. In the case of `CCCC[C@H](NC(=O)[C@H](CC(C)C)NC(=O)c1ccccc1F)C(=O)CSCc1ccco1` it was 102 to 103 °C; in that of `Cn1nc(-c2ncc(Cl)cc2F)c(N)c1OC(F)F`, 92 to 94 °C. In turn, `CCc1c2nc(-c3cc(C(C)=O)cnc3OCC(C)C)[nH]c(=O)c2nn1C1CCN(C)CC1` came in with a melting point of 195 to 196 °C.

`O=c1c2cccc3ncc(c(=O)n1CCCNS(=O)(=O)C(F)(F)F)n32` yielded a melting point of 124 to 125 °C. In turn, `CC(C)(C)c1cc(CCc2ccccc2NC(=O)NCCCc2cccs2)cc(C(C)(C)C)c1O` showed a melting point of 150 °C.

On to `NCCN1C(=O)CN(c2ccc3c(c2)OCO3)C1=O`, for which the melting point is 171 to 173 °C. In the case of `CC#CCC(CC#CC)(C(=O)O)S(=O)(=O)c1ccc(N2CCC(NC[C@H](O)c3ccc(O)c(NS(C)(=O)=O)c3)CC2)cc1` it was 175 to 177 °C; in that of `O=C(Nc1c[nH]nc1C(=O)Nc1ccccc1)c1ccccn1`, 281 to 282 °C; in that of `CS(=O)(=O)c1cc([N+](=O)[O-])cc(O)c1O`, 221 to 224 °C. With `CCCCN(C(=O)CCCCC(=O)N(CCCC)C1CC(C)(C)NC(C)(C)C1)C1CC(C)(C)NC(C)(C)C1`, the melting point is 134 to 144 °C. As to `Sc1nc2ccccc2n1Cc1cc(Cl)cc(Cl)c1`, the melting point is 233 °C. The value for `CCc1nc2c(N)nc3ccccc3c2n1CCCCNC(=O)C1CCCCC1` was 202 °C; that for `C[C@H]1CN(C(=O)OC(C)(C)C)S(=O)(=O)O1` was 123 to 125 °C. In the case of `COc1ccccc1CN1Cc2c(-c3ccccc3)c3cc(C)c(C)cc3c(=O)n2CC1=O` it was 211 to 214 °C; in that of `COC(=O)/C=C/c1ccc2nn(C)cc2c1C(=O)OC`, 232 to 234 °C. As to `CN(C)S(=O)(=O)c1cccc(Nc2ncc3cc4ccccc4n3n2)c1`, the melting point lay within 191 to 193 °C.

`OC(Cn1cncn1)(c1ccc(F)cc1)C(F)(F)C(F)(F)C(F)(F)F` (centres undefined) showed a melting point of 126 to 127 °C.

Turning to `COc1ccc2cccc(C(=O)C(=O)O)c2c1`, the melting point was determined as 99 °C. `COc1cc([C@H]2C(C#N)=C(N)Oc3c2ccc(NC(=O)CN(C)C(=O)OC2c4ccccc4-c4ccccc42)c3N)cc(Br)c1OC` displayed a melting point of 128 to 130 °C. Consider `O=C(O)Cc1cccc(-c2ccccc2OC2OC(CO)C(O)C(O)C2O)c1` (centres undefined), for which the melting point lay within 85 to 86 °C. In turn, `O=C1CN(Cc2ccccc2)CC2c3ccccc3CCCN12` (centres undefined) came in with a melting point of 125 to 128 °C. In the case of `Cc1cn(C)c2c1N(C(=O)CCN1CCN(C)CC1)c1ccccc1NC2=O` it was 187 °C; in that of `Fc1ccc(Nc2nc3ccccc3o2)c(F)c1`, 115 to 117 °C; in that of `CCCCOc1cc(/C=C(\OCC)C(=O)O)ccc1OCCc1ccc(N(C)S(=O)(=O)CCCC)cc1`, 144 °C.

For `CCC(C)c1ccc(-n2c(-c3cc(C)c(OCCO)c(C)c3)nc3cc(F)ccc3c2=O)cc1` (centres undefined), the melting point was 53.9 to 54.4 °C.

Consider `COc1ccc(CNc2nc(N3CCCC3CO)nc(OC)c2C(=O)NCc2ncccn2)cc1Cl` (centres undefined), for which the melting point was 153 to 154 °C. Take `CC(C=O)=CC=CC(C)=CCO`: the melting point lay within 42 to 45 °C.

As usually defined, the melting point is the temperature of the solid-liquid transition.
